Reference: article PMC10139140, “Synthesis of Novel 2-(Cyclopentylamino)thiazol-4(5H)-one Derivatives with Potential Anticancer, Antioxidant, and 11β-HSD Inhibitory Activities” (International Journal of Molecular Sciences, 2023)
Blank lines part the entries; values can stand above or below the compound they belong to.

Experiments:
11β-HSD1 = target: T1, 11β-HSD1 (Homo sapiens, UniProt P28845); test: Inhibition of 11β-HSD1 (cortisone to cortisol, human liver microsomes, cortisol ELISA); assay type: biochemical; settings: for inhibition at 10 µM: 2.5 h, 37 °C
T1 construct: Human liver microsomes were used as a source of 11β-HSD1 enzyme; tissue XenoTech Lot No. 1410013; host or cells: pooled human liver microsomes, mixed gender
Method in brief: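 Human liver microsomal conversion of cortisone to cortisol, incubated 2.5 h at 37 °C and stopped with 18β-glycyrrhetinic acid. Cortisol was quantified by ELISA against inhibitor-free controls.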

11β-HSD2 = target: T2, 11β-HSD2 (Homo sapiens, UniProt P80365); test: Inhibition of 11β-HSD2 (cortisol to cortisone, human microsomes, cortisol ELISA); assay type: biochemical; settings: 2.5 h, 37 °C
T2 construct: Human liver microsomes were used as a source of 11β-HSD2 enzyme; tissue XenoTech Lot No. 1710160; host or cells: human kidney microsomes, mixed gender (method text says human liver microsomes)
T2 sequence (P80365 1-405): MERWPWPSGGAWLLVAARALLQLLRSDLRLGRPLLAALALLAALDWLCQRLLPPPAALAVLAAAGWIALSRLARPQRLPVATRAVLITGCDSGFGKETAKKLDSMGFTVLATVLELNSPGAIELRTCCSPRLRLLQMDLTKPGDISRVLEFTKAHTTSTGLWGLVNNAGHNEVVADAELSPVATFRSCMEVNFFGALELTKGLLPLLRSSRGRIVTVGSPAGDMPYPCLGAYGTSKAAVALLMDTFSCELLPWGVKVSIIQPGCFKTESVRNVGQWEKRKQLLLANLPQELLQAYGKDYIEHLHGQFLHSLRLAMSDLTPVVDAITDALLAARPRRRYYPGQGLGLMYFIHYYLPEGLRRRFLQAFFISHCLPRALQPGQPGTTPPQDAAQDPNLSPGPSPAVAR
Description: The resulting solution with a final volume of 100 µL was incubated for 2.5 h at 37 °C. […] The level of unreacted cortisol was measured by a commercially available ELISA kit.

BJ cells = test: MTS metabolic activity assay, BJ cells; assay type: cell-based; settings: Homo sapiens, 72 h, read-out: Cell metabolic activity (MTS), % of untreated control
Description: (§1) The BJ (CRL-2522), Caco-2 (HTB-37), PANC-1 (CRL-1469), U-118 MG (HTB-15), SK-MEL-30 (ACC 151), and MDA-MB-231 (HTB-26) cell lines were purchased from ATCC (Manassas, VA, USA) or DSMZ (Braunschweig, GERMANY). Cells were cultured in accordance with manufacturers' recommendations in a DMEM, MEM, or RPMI-1640 (Sigma, Saint Louis, MO, USA; Gibco, Waltham, MA, USA), supplemented with 10% FBS, except for Caco-2 (20%) (Thermo Fisher Scientific, Waltham, MA, USA) and 1% antibiotic mix solution (penicillin, streptomycin; Thermo Fisher Scientific, Waltham, MA, USA) in a humidified atmosphere with 5% CO2 at 37 °C. All cell lines were cultured in T75 cell culture flasks or cell culture dishes to reach 80–90% confluency and seeded at a standard density of 5 × 10^3 cells/0.32 cm^2, except for BJ cells at 2 × 10^3 cells/0.32 cm^2.
(§2) The MTS ((MTS: 3-(4,5-dimethylthiazol-2-yl)-5-(3-carboxymethoxyphenyl)-2-(4-sulfophenyl)-2H-tetrazolium)) assay was performed following previously reported method. Briefly, cells were seeded at a standard density into 96-well flat-bottom plates and incubated for 24 h, followed by the treatment. The various concentrations of compounds were prepared and treated for the next 72 h. MTS solution was added for 3h and incubated at standard conditions, protected from light. Finally, the absorbance was read at […] and 620 nm wavelengths using a Synergy H1 microplate reader (BioTek, Santa Clara, CA, USA). The results are presented as %, while untreated control cells were considered 100%.

[1] = test system: human colon carcinoma (Caco-2); test: MTS metabolic activity assay, Caco-2 cells; assay type: cell-based; settings: Homo sapiens, 72 h, read-out: Cell metabolic activity (MTS), % of untreated control; for viability at 10 µM: Caco-2, 10 µM; for viability at 20 µM: Caco-2, 20 µM; for viability at 50 µM: Caco-2, 50 µM; for viability at 100 µM: Caco-2, 100 µM; for viability at 200 µM: Caco-2, 200 µM; for viability at 300 µM: Caco-2, 300 µM; for viability at 500 µM: Caco-2, 500 µM
Description: as §1, §2

[2] = test system: human pancreatic carcinoma (PANC-1); test: MTS metabolic activity assay, PANC-1 cells; assay type: cell-based; settings: Homo sapiens, 72 h, read-out: Cell metabolic activity (MTS), % of untreated control; for viability at 10 µM: PANC-1, 10 µM; for viability at 20 µM: PANC-1, 20 µM; for viability at 50 µM: PANC-1, 50 µM; for viability at 100 µM: PANC-1, 100 µM; for viability at 200 µM: PANC-1, 200 µM; for viability at 300 µM: PANC-1, 300 µM; for viability at 500 µM: PANC-1, 500 µM
Description: as §1, §2

glioma (U-118 MG) = test: MTS metabolic activity assay, U-118 MG cells; assay type: cell-based; settings: Homo sapiens, U-118-MG, U118-MG, 72 h, read-out: Cell metabolic activity (MTS), % of untreated control
Description: as §1, §2

[3] = test system: skin melanoma (SK-MEL-30); test: MTS metabolic activity assay, SK-MEL-30 cells; assay type: cell-based; settings: Homo sapiens, 72 h, read-out: Cell metabolic activity (MTS), % of untreated control; for viability at 10 µM: SK-MEL-30, 10 µM; for viability at 20 µM: SK-MEL-30, 20 µM; for viability at 50 µM: SK-MEL-30, 50 µM; for viability at 100 µM: SK-MEL-30, 100 µM; for viability at 200 µM: SK-MEL-30, 200 µM; for viability at 300 µM: SK-MEL-30, 300 µM; for viability at 500 µM: SK-MEL-30, 500 µM
Description: as §1, §2

[4] = test system: human breast carcinoma (MDA-MB-231); test: MTS metabolic activity assay, MDA-MB-231 cells; assay type: cell-based; settings: Homo sapiens, 72 h, read-out: Cell metabolic activity (MTS), % of untreated control; for viability at 10 µM: MDA-MB-231, 10 µM; for viability at 20 µM: MDA-MB-231, 20 µM; for viability at 50 µM: MDA-MB-231, 50 µM; for viability at 100 µM: MDA-MB-231, 100 µM; for viability at 200 µM: MDA-MB-231, 200 µM; for viability at 300 µM: MDA-MB-231, 300 µM; for viability at 500 µM: MDA-MB-231, 500 µM
Description: as §1, §2

T1 sequence (P28845 whole entry): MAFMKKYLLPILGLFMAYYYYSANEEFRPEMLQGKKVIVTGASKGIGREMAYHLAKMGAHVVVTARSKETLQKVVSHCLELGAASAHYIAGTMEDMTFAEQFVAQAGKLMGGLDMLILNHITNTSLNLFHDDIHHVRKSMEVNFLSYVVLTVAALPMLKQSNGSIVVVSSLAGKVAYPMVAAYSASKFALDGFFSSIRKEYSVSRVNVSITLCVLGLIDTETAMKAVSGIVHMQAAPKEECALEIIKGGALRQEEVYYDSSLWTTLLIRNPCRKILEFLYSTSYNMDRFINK

- IC50 (11β-HSD1): 4.4 ± 0.15 µM
- inhibition at 10 µM (11β-HSD1): 53.2 ± 5.22%
- inhibition at 10 µM (11β-HSD2): 36.6 ± 1.5%
Compound: CC1(C)SC(NC2CCCC2)=NC1=O [Compound 3e, 2-(cyclopentylamino)-5,5-dimethylthiazol-4(5H)-one]
- viability at 10 µM (BJ cells): 107%
- viability at 20 µM (BJ cells): 109%
- viability at 50 µM (BJ cells): 112%
- viability at 100 µM (BJ cells): 114%
- viability at 200 µM (BJ cells): 117%
- viability at 300 µM (BJ cells): 119%
- viability at 500 µM (BJ cells): 108%
- viability at 10 µM [1]: 99.9%
- viability at 20 µM [1]: 86.5%
- viability at 50 µM [1]: 86.7%
- viability at 100 µM [1]: 83.4%
- viability at 200 µM [1]: 80.2%
- viability at 300 µM [1]: 75.6%
- viability at 500 µM [1]: 64.1%
- viability at 10 µM [2]: 110%
- viability at 20 µM [2]: 101%
- viability at 50 µM [2]: 110%
- viability at 100 µM [2]: 112%
- viability at 200 µM [2]: 120%
- viability at 300 µM [2]: 122%
- viability at 500 µM [2]: 127%
- viability at 10 µM (glioma (U-118 MG)): 110%
- viability at 20 µM (glioma (U-118 MG)): 110%
- viability at 50 µM (glioma (U-118 MG)): 116%
- viability at 100 µM (glioma (U-118 MG)): 111%
- viability at 200 µM (glioma (U-118 MG)): 112%
- viability at 300 µM (glioma (U-118 MG)): 109%
- viability at 500 µM (glioma (U-118 MG)): 106%
- viability at 10 µM [3]: 102%
- viability at 20 µM [3]: 100%
- viability at 50 µM [3]: 103%
- viability at 100 µM [3]: 106%
- viability at 200 µM [3]: 106%
- viability at 300 µM [3]: 104%
- viability at 500 µM [3]: 104%
- viability at 10 µM [4]: 96.3%
- viability at 20 µM [4]: 100%
- viability at 50 µM [4]: 103%
- viability at 100 µM [4]: 95.7%
- viability at 200 µM [4]: 93.7%
- viability at 300 µM [4]: 90.6%
- viability at 500 µM [4]: 85.2%

- IC50 (11β-HSD1): > 10 µM
- inhibition at 10 µM (11β-HSD1): 21.3 ± 3.29%
- inhibition at 10 µM (11β-HSD2): 39.7 ± 0.07%
Compound: CCC1SC(NC2CCCC2)=NC1=O (stereo not drawn) [Compound 3b, 2-(cyclopentylamino)-5-ethylthiazol-4(5H)-one]
- viability at 10 µM (BJ cells): 97.9%
- viability at 20 µM (BJ cells): 98.5%
- viability at 50 µM (BJ cells): 102%
- viability at 100 µM (BJ cells): 108%
- viability at 200 µM (BJ cells): 110%
- viability at 300 µM (BJ cells): 112%
- viability at 500 µM (BJ cells): 111%
- viability at 10 µM [1]: 87.9%
- viability at 20 µM [1]: 87.3%
- viability at 50 µM [1]: 84.4%
- viability at 100 µM [1]: 79.8%
- viability at 200 µM [1]: 77%
- viability at 300 µM [1]: 73.2%
- viability at 500 µM [1]: 66.1%
- viability at 10 µM [2]: 103%
- viability at 20 µM [2]: 102%
- viability at 50 µM [2]: 107%
- viability at 100 µM [2]: 112%
- viability at 200 µM [2]: 113%
- viability at 300 µM [2]: 110%
- viability at 500 µM [2]: 105%
- viability at 10 µM (glioma (U-118 MG)): 110%
- viability at 20 µM (glioma (U-118 MG)): 107%
- viability at 50 µM (glioma (U-118 MG)): 111%
- viability at 100 µM (glioma (U-118 MG)): 113%
- viability at 200 µM (glioma (U-118 MG)): 113%
- viability at 300 µM (glioma (U-118 MG)): 112%
- viability at 500 µM (glioma (U-118 MG)): 107%
- viability at 10 µM [3]: 93.7%
- viability at 20 µM [3]: 99%
- viability at 50 µM [3]: 97.4%
- viability at 100 µM [3]: 105%
- viability at 200 µM [3]: 101%
- viability at 300 µM [3]: 98.4%
- viability at 500 µM [3]: 93.8%
- viability at 10 µM [4]: 97.5%
- viability at 20 µM [4]: 97.8%
- viability at 50 µM [4]: 94.5%
- viability at 100 µM [4]: 95.3%
- viability at 200 µM [4]: 86.5%
- viability at 300 µM [4]: 75.3%
- viability at 500 µM [4]: 57.4%
